These results are taken from patent publication US9034865B2, “Pyrido [4,3-B] indole and pyrido [3,4-B] indole derivatives and methods of use” (Medivation Technologies, Inc., priority 2010, dated 2015).

For experiment [1], the target named is T1, human recombinant serotonin (5-Hydroxytryptamine) 5-HT7 receptor (Homo sapiens, UniProt P34969).
T1 construct: expressed in transfected cells; host or cells: CHO
Description: Serotonin 5-HT7 radioligand binding ([3H]LSD). The settings on record: compound at 0.1 μM; read-out: Percentage inhibition of ligand binding, Serotonin (0.1 μM) 5-HT7. The procedure:
To evaluate in radioligand binding assays the activity of compounds of the invention, human recombinant serotonin (5-Hydroxytryptamine) 5-HT7 receptor expressed in Chinese hamster ovary (CHO) cells (Roth, B. et al, J. Pharmacol. Exp. Ther. 268:1403, 1994; Shen, Y. et al, J. Biol. Chem. 268:18200, 1993) in a modified Tris-HCl buffer (50 mM Tris-HCl, pH 7.4, 10 mM MgCl2, 0.5 mM EDTA) was used. Compounds of invention were incubated with 5.5 nM [^3H] Lysergic acid diethylamide (LSD) for 2 h at 25° C. Non-specific binding was estimated in the presence of 10 μM Serotonin (5-HT). Receptor proteins were filtered and washed, the filters were then counted to determine [^3H]LSD specifically bound. Compounds were screened at 1 μM or lower, using 1% DMSO as vehicle. Biochemical assay results are presented as the percent inhibition of specific binding in Table 4.

Experiment [2] addresses T2, human recombinant serotonin (5-Hydroxytryptamine) 5-HT2A receptor (Homo sapiens, UniProt P28223).
T2 construct: expressed in transfected cells; host or cells: CHO-K1
The experiment can be described thus: Serotonin 5-HT2A radioligand binding ([3H]Ketanserin). The note with it: compound at 0.1 μM; read-out: Percentage inhibition of ligand binding, Serotonin (0.1 μM) 5-HT2A. As for the experimental part:
To evaluate in radioligand binding assays the activity of compounds of the invention, human recombinant serotonin (5-Hydroxytryptamine) 5-HT2A receptor expressed in Chinese hamster ovary (CHO) K1 cells (Bonhaus, D. et al, Br. J. Pharmacol. 115:622, 1995; Saucier, C. et al, J. Neurochem. 68:1998, 1997) in a 50 mM Tris-HCl buffer, pH 7.4, was used. Compounds of the invention were incubated with 0.5 nM [^3H]Ketanserin for 60 min at 25° C. Non-specific binding was estimated in the presence of 1 μM Mianserin. Receptor proteins were filtered and washed, the filters were then counted to determine [^3H]Ketanserin specifically bound. Compounds were screened at 1 μM or lower, using 1% DMSO as vehicle. Biochemical assay results are presented as the percent inhibition of specific binding in Table 4.

Experiment [3] deals with T3, human recombinant dopamine D2L receptor (Homo sapiens, UniProt P14416).
T3 construct: expressed in transfected cells; host or cells: CHO
T3 sequence (P14416 whole entry): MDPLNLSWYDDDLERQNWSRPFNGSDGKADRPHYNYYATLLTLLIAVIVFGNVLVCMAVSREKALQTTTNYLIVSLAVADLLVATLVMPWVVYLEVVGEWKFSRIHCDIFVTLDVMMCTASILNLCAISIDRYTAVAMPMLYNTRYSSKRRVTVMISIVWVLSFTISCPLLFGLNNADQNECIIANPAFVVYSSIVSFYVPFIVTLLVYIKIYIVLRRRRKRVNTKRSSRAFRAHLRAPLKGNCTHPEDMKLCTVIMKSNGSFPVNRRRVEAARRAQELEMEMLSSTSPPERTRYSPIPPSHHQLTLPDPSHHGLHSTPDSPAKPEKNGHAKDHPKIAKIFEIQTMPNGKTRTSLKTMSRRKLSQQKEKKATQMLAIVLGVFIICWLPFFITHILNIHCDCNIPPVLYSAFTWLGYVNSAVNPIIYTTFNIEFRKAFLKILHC
The experiment can be described thus: Dopamine D2L radioligand binding ([3H]Spiperone). The note with it: compound at 1 μM; read-out: Percentage inhibition of ligand binding, Dopamine (1 μM) D2L. The procedure:
To evaluate in radioligand binding assays the activity of compounds of the invention, human recombinant dopamine D2L receptor expressed in Chinese hamster ovary (CHO) cells (Grandy, D. et al, Proc. Natl. Acad. Sci. USA. 86:9762, 1989; Hayes, G. et al, Mol. Endocrinol. 6:920, 1992) in a modified Tris-HCl buffer (50 mM Tris-HCl, pH 7.4, 1.4 mM Ascorbic Acid, 0.001% BSA, 150 mM NaCl) was used. Compounds of the invention were incubated with 0.16 nM [^3H]Spiperonefor 120 min at 25° C. Non-specific binding was estimated in the presence of 10 μM Haloperidol. Receptor proteins were filtered and washed, the filters were then counted to determine [^3H]Spiperone specifically bound. Compounds were screened at 1 μM or lower, using 1% DMSO as vehicle. Biochemical assay results are presented as the percent inhibition of specific binding in Table 3.

In experiment [4] the target is T4, human recombinant serotonin (5-Hydroxytryptamine) 5-HT2C receptor (Homo sapiens, UniProt P28335).
T4 construct: expressed in transfected cells; host or cells: CHO-K1
T4 sequence (P28335 33-458): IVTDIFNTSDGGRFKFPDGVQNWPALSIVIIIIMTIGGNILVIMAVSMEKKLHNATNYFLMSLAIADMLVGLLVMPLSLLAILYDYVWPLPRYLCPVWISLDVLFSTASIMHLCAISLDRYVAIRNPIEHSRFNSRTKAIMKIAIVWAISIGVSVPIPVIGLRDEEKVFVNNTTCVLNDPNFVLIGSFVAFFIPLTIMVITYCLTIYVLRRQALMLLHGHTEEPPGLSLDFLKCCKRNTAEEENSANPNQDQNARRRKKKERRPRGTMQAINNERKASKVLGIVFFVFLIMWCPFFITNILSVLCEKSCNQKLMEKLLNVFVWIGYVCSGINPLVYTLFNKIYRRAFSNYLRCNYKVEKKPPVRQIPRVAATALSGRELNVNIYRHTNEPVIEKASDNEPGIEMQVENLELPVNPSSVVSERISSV
The experiment can be described thus: Serotonin 5-HT2C radioligand binding ([3H]Mesulergine). The note with it: compound at 0.1 μM; read-out: Percentage inhibition of ligand binding, Serotonin (0.1 μM) 5-HT2C. The procedure: To evaluate in radioligand binding assays the activity of compounds of the invention, human recombinant serotonin (5-Hydroxytryptamine) 5-HT2C receptor expressed in Chinese hamster ovary (CHO) K1 cells (Wolf, W. et al, J. Neurochem. 69:1449, 1997) in a modified Tris-HCl buffer (50 mM Tris-HCl, pH 7.4, 0.1% Ascorbic Acid, 10 μM Pargyline) was used. Compounds of the invention were incubated with 1 nM [^3H]Mesulergine for 60 min at 25° C. Non-specific binding was estimated in the presence of 1 μM Mianserin. Receptor proteins were filtered and washed, the filters were then counted to determine [^3H]Mesulergine specifically bound. Compounds were screened at 1 μM or lower, using 1% DMSO as vehicle. Biochemical assay results are presented as the percent inhibition of specific binding in Table 4.

In experiment [5] the target is T5, human recombinant serotonin (5-Hydroxytryptamine) 5-HT6 receptor (Homo sapiens, UniProt P50406).
T5 construct: expressed in transfected cells; host or cells: HeLa
T5 sequence (P50406 whole entry): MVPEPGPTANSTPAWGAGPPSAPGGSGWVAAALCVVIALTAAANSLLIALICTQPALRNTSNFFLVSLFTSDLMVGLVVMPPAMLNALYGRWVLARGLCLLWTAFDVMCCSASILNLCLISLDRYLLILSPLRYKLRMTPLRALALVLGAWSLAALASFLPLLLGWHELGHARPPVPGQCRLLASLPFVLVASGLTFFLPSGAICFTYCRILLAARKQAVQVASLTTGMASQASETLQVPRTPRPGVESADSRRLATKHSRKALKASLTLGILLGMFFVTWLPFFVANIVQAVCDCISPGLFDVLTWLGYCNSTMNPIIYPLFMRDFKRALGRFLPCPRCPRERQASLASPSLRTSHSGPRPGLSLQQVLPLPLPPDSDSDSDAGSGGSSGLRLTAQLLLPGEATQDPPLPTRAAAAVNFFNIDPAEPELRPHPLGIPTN
Description: Serotonin 5-HT6 radioligand binding ([3H]LSD). The note with it: compound at 0.1 μM; read-out: Percentage inhibition of ligand binding, Serotonin (0.1 μM) 5-HT6. As for the experimental part: To evaluate in radioligand binding assays the activity of compounds of the invention, human recombinant serotonin (5-Hydroxytryptamine) 5-HT6 receptor expressed in human HeLa cells (Monsma, F. Jr. et al, Mol. Pharmacol. 43:320, 1993) in a modified Tris-HCl buffer (50 mM Tris-HCl, pH 7.4, 150 mM NaCl, 2 mM Ascorbic Acid, 0.001% BSA) was used. Compounds of the invention were incubated with 1.5 nM [3H]Lysergic acid diethylamide (LSD) for 120 min at 37° C. Non-specific binding was estimated in the presence of 5 μM Serotonin (5-HT). Receptor proteins were filtered and washed, the filters were then counted to determine [3H]LSD specifically bound. Compounds were screened at 1 μM or lower, using 1% DMSO as vehicle. Biochemical assay results are presented as the percent inhibition of specific binding in Table 4.

In experiment [6] the target is T6, human recombinant histamine H1 receptor (Homo sapiens, UniProt P35367).
T6 construct: expressed in transfected cells; host or cells: CHO-K1
T6 sequence (P35367 whole entry): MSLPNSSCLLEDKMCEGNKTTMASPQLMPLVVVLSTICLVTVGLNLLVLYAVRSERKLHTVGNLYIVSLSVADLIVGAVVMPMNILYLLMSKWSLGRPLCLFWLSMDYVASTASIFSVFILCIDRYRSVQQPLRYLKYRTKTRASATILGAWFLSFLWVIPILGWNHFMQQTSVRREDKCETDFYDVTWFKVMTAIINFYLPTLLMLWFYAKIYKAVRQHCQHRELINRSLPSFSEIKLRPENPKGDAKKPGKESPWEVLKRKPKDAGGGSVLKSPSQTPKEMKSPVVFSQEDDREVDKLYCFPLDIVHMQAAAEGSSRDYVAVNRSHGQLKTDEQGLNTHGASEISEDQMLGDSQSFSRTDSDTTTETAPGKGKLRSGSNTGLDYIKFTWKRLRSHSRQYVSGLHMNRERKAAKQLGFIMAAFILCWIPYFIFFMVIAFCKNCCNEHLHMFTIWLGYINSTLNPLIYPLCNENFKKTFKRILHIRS
Description: Histamine H1 radioligand binding ([3H]Pyrilamine). The settings on record: compound at 1 μM; 1.2 nM [3H]Pyrilamine; read-out: Binding data (Percentage inhibition) Histamine H1 (1 μM). The procedure:
To evaluate in radioligand binding assays the activity of compounds of the invention, human recombinant histamine H1 receptor expressed in Chinese hamster ovary (CHO) K1 cells (De Backer, M. et al, Biochem. Biophys. Res. Comm. 197(3):1601, 1993) in a modified Tris-HCl buffer (50 mM Tris-HCl, pH 7.4, 2 mM MgCl2, 100 mM NaCl, 250 mM Sucrose) was used. Compounds of the invention were incubated with 1.2 nM [^3H]Pyrilamine for 180 min at 25° C. Non-specific binding was estimated in the presence of 1 μM Pyrilamine. Receptor proteins were filtered and washed, the filters were then counted to determine [^3H]Pyrilamine specifically bound. Compounds were screened at 1 μM or lower, using 1% DMSO as vehicle. Biochemical assay results are presented as the percent inhibition of specific binding in Table 2.

T2 sequence (P28223 whole entry): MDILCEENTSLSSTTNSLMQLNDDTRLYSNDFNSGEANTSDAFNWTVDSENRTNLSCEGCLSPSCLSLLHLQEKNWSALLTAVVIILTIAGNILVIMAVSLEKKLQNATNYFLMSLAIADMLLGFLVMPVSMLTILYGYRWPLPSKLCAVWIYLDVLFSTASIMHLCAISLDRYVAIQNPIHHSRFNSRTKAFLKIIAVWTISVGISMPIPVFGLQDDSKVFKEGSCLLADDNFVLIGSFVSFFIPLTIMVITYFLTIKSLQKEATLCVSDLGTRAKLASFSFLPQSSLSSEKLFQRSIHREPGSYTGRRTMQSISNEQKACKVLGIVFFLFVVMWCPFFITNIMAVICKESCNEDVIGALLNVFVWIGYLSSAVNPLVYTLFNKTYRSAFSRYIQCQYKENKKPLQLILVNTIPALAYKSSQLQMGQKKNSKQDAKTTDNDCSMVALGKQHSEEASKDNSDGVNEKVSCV
T1 sequence (P34969 whole entry): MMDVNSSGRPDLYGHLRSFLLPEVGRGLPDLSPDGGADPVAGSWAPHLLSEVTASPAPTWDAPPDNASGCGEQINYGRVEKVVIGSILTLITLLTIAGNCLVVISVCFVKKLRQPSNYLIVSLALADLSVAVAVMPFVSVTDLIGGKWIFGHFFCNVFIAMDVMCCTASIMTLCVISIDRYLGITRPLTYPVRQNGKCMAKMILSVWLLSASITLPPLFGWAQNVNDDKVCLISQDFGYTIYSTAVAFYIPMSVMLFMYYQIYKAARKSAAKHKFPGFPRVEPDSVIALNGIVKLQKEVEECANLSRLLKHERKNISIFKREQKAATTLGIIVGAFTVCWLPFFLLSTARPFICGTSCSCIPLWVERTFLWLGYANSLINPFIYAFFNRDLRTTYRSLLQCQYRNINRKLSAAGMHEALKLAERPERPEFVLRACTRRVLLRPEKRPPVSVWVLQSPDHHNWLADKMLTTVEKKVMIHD

As usually defined, the inhibition is the change of the read-out against control, counted positive when it falls. With `CN1CCc2[nH]c3c(N(C)Cc4ccccc4)cccc3c2C1` [Compound 1, benzyl-methyl-(2-methyl-2,3,4,5-tetrahydro-1H-pyrido[4,3-b]indol-6-yl)-amine], the inhibition at 0.1 µM in experiment [1] is 9%; in experiment [2], 73%; in experiment [4] it was 55%; in experiment [5] it was 44%. The inhibition at 1 µM in experiment [3] stood at 21%; in experiment [6] it was 6%.

Consider `Cc1cc(CCc2ccc(C)nc2)c2[nH]c3c(c2c1)CN(C)CC3` [Compound 2], for which the inhibition at 0.1 µM worked out at 17% in experiment [1], 6% in experiment [2], 36% in experiment [4] and 4% in experiment [5]. Further, the inhibition at 1 µM in experiment [3] was determined as 6%; in experiment [6] it was 58%.

Consider `CN1CCc2[nH]c3c(NCc4ccccc4)cccc3c2C1` [Compound 3], for which the inhibition at 0.1 µM in experiment [1] came to 14%; in experiment [2], 40%; in experiment [4] it was 41%; in experiment [5] it was 13%. Also, the inhibition at 1 µM in experiment [3] stood at 19%; in experiment [6], 14%.

Turning to `CN1CCc2[nH]c3c(NCc4ccncc4)cccc3c2C1` [Compound 4], the inhibition at 0.1 µM is -10% in experiment [1], -7% in experiment [2], 7% in experiment [4] and 2% in experiment [5]. The values for the inhibition at 1 µM in experiment [3] and in experiment [6] were 5% and 15%, respectively.

Turning to `Cc1cc(C#Cc2ccncc2)c2[nH]c3c(c2c1)CN(C)CC3` [Compound 5], the inhibition at 0.1 µM in experiment [1] was 45%; in experiment [2], 54%; in experiment [4], 45%; in experiment [5], 30%. The figures for the inhibition at 1 µM in experiment [3] and in experiment [6] were 10% and 17%, respectively.

Take `Cc1cc(C#Cc2ccc(C)nc2)c2[nH]c3c(c2c1)CN(C)CC3` [Compound 6, 2,8-dimethyl-6-((6-methylpyridin-3-yl)ethynyl)-2,3,4,5-tetrahydro-1H-pyrido[4,3-b]indole]: the inhibition at 0.1 µM in experiment [1] was 43%; in experiment [2] it was 41%; in experiment [4], 55%; in experiment [5], 24%. For the same compound, the inhibition at 1 µM came to 7% in experiment [3] and 16% in experiment [6].
